Assay results reported in patent US11369556B2, “Oral care composition comprising rottlerin” (Colgate-Palmolive Company, priority 2017, dated 2022).

Experiments:
S. oralis [1] = experiment: Cell viability of S. oralis, resazurin assay; format: cell-based, Streptococcus oralis; settings: for Cell Viability: incubated 1 hour at 37° C.
Method: (§1) S. ovalis is a representative streptococcus species of bacteria that colonize the oral cavity and may serve as a representative species for the efficacy of antimicrobial agents. Table 4 (below) illustrates the effects of rottlerin on the metabolic activity and cell viability of S. ovalis when treated with various concentrations of rottlerin. The metabolic activity of the S. ovalis bacteria was measured through ATP assays, and the cell viability was measured using a resazurin assay.
In particular, the cell viability of S. oralis was measured through a resazurin assay as follows: A culture of S. oralis bacteria was grown and standardized to a 610˜0.6 OD. 500 μl of the S. oralis bacteria culture was then transferred to a clean and sterile micro-centrifuge tube. The tube was then centrifuged at greater than 15,000 g for 10 minutes to pellet the bacteria. The tube samples were then treated with different amounts of rottlerin and resuspended in 1 ml of 0.25× Trypticase soy broth (TSB) in water. Control and dead samples were created by resuspending the pellet bacteria in sterile media or 100% ethanol, and without adding rottlerin. The tubes were then inverted 3 times for mixing and incubated at 37° C. for 1 hour. Afterwards, 1 ml of D/E neutralizing broth was added to each tube and the samples in the tubes were then washed and stained. The tubes were then centrifuged at greater than 15,000 g for 10 minutes to pellet the bacteria again. The supernate was then removed and the bacteria was resuspended in 1 ml of sterile 0.25× TSB wash. Three 100 μl samples from each tube were then each individually plated in individual wells of a 96-well plate. The samples were then prepared for a standard analytic curve by combining fixed ratios of the live and dead control samples. 100 μl of the resazurin dye solution were then added to each well, and the 96-well plate was then incubated at 37° C. until the live control samples turned the appropriate pink color. A fluorescence plate reader was then used to read the fluorescence of the resazurin dye at 560 nm excitation/590 nm emission, and a percentage of live and dead cells was then calculated.

S. oralis [2] = experiment: Metabolic activity of S. oralis, ATP assay; format: cell-based, Streptococcus oralis; settings: for Reduction of Metabolic Activity: incubated 1 hour at 37° C.
Method: as §1
Similarly, the metabolic activity was measured through an ATP assay as follows: A culture of S. oralis bacteria was grown and standardized to a 610˜0.6 OD. 500 μl of the S. ovalis bacteria culture was then transferred to a clean and sterile micro-centrifuge tube and treated as above. Three 100 μl samples from each tube were then individually plated in individual wells of a 96-well plate and 100 μl of Bactitre glow ATP reagent was added. The metabolic activity of the S. oralis bacteria was then monitored by measuring luminescence, with an increase in luminescence correlating with higher metabolic cells.

[3] = system: mixed species, equal amounts of S. oralis, S. mutans, and A. viscosus; experiment: 10-hour bacterial growth, optical density readings, mixed species; format: cell-based
Method: (§2) In particular, Tables 1-3 illustrate 10-hour bacterial growth in terms of optical density (OD) readings taken at one-hour intervals, where the density readings represent the amount of bacteria present.
(§3) The bacterial cultures were grown overnight and standardized to a 0.05 OD reading, after which, different concentrations of rottlerin were added, and the bacterial growth was monitored hourly for 10 hours using a plate reader.
Finally, Table 3 illustrates three examples of mixed species bacterial growth, including equal amounts of S. oralis, S. mutans, and A. viscosus species: an untreated growth, a growth of the mixed species after treatment with 10 μM of rottlerin, and a growth of the mixed species after treatment with 20 μM of rottlerin.

S. oralis [4] = experiment: 10-hour bacterial growth, optical density readings, S. oralis; format: cell-based, Streptococcus oralis
Method: as §2, §3
Table 1 illustrates three examples of S. oralis bacterial growth: one showing the untreated growth of S. oralis, another showing the growth of S. oralis after treatment with 10 μM of rottlerin, and a final example showing the growth of S. oralis after treatment with 20 μM of rottlerin.

A. viscosus = experiment: 10-hour bacterial growth, optical density readings, A. viscosus; format: cell-based, Actinomyces viscosus
Method: as §2, §3
Table 2 illustrates three examples of A. viscosus bacterial growth: an untreated A. viscosus growth, a growth of A. viscosus after treatment with 10 μM of rottlerin, and a growth of A. viscosus after treatment with 20 μM of rottlerin.

[5] = low concentrations of rottlerin

## CC(=O)c1c(O)c(C)c(O)c(Cc2c(O)c3c(c(C(=O)/C=C/c4ccccc4)c2O)OC(C)(C)C=C3)c1O [rottlerin, 5,7-dihydro-2,2-dimethyl-6-(2,4,6-trihydroxy-3-methyl-5-acetylbenzyl)-8-cinnamoyl-1,2-chromene]
S. oralis [1]; Rottlerin Amt. 0.25 μg
  Cell Viability: 79.5%
S. oralis [1]; Rottlerin Amt. 1.25 μg
  Cell Viability: 61%
S. oralis [1]; Rottlerin Amt. 2.5 μg
  Cell Viability: 49.4%
S. oralis [1]; Rottlerin Amt. 5 μg
  Cell Viability: 41.1%
S. oralis [1]; Rottlerin Amt. 10 μg
  Cell Viability: 25.9%
S. oralis [1]; Rottlerin Amt. 12.5 μg
  Cell Viability: 19.9%
S. oralis [1]; [5]
  cell viability of S. oralis: significantly negatively affected
S. oralis [2]; Rottlerin Amt. 0.25 μg
  Reduction of Metabolic Activity: 40%
S. oralis [2]; Rottlerin Amt. 1.25 μg
  Reduction of Metabolic Activity: 51%
S. oralis [2]; Rottlerin Amt. 2.5 μg
  Reduction of Metabolic Activity: 60%
S. oralis [2]; Rottlerin Amt. 5 μg
  Reduction of Metabolic Activity: 61%
S. oralis [2]; Rottlerin Amt. 10 μg
  Reduction of Metabolic Activity: 72%
S. oralis [2]; Rottlerin Amt. 12.5 μg
  Reduction of Metabolic Activity: 75%
S. oralis [2]; [5]
  metabolic activity of S. oralis: significantly negatively affected
[3]; 10 μM, exposure time 1 hour
  Mixed species growth (OD): 0.088 OD
[3]; 10 μM, exposure time 3 hours
  Mixed species growth (OD): 0.083 OD
[3]; 10 μM, exposure time 4 hours
  Mixed species growth (OD): 0.081 OD
[3]; 10 μM, exposure time 5 hours
  Mixed species growth (OD): 0.082 OD
[3]; 10 μM, exposure time 6 hours
  Mixed species growth (OD): 0.079 OD
[3]; 10 μM, exposure time 7 hours
  Mixed species growth (OD): 0.076 OD
[3]; 10 μM, exposure time 8 hours
  Mixed species growth (OD): 0.073 OD
[3]; 10 μM, exposure time 9 hours (head of second time column, c2)
  Mixed species growth (OD): 0.085 OD
[3]; 10 μM, exposure time 10 hours
  Mixed species growth (OD): 0.070 OD
[3]; 20 μM, exposure time 1 hour
  Mixed species growth (OD): 0.089 OD
[3]; 20 μM, exposure time 3 hours
  Mixed species growth (OD): 0.090 OD
[3]; 20 μM, exposure time 4 hours
  Mixed species growth (OD): 0.089 OD
[3]; 20 μM, exposure time 5 hours
  Mixed species growth (OD): 0.088 OD
[3]; 20 μM, exposure time 6 hours
  Mixed species growth (OD): 0.085 OD
[3]; 20 μM, exposure time 7 hours
  Mixed species growth (OD): 0.082 OD
[3]; 20 μM, exposure time 8 hours
  Mixed species growth (OD): 0.076 OD
[3]; 20 μM, exposure time 9 hours (head of second time column, c2)
  Mixed species growth (OD): 0.091 OD
[3]; 20 μM, exposure time 10 hours
  Mixed species growth (OD): 0.071 OD
[3]; mixed species, low concentrations of rottlerin (Table 3)
  growth of bacteria compared to an untreated control: significantly reduced
S. oralis [4]; 10 μM, exposure time 1 hour
  S. oralis growth (OD): 0.10 OD
S. oralis [4]; 10 μM, exposure time 2 hours
  S. oralis growth (OD): 0.095 OD
S. oralis [4]; 10 μM, exposure time 3 hours
  S. oralis growth (OD): 0.091 OD
S. oralis [4]; 10 μM, exposure time 4 hours
  S. oralis growth (OD): 0.088 OD
S. oralis [4]; 10 μM, exposure time 5 hours
  S. oralis growth (OD): 0.089 OD
S. oralis [4]; 10 μM, exposure time 6 hours
  S. oralis growth (OD): 0.091 OD
S. oralis [4]; 10 μM, exposure time 7 hours
  S. oralis growth (OD): 0.088 OD
S. oralis [4]; 10 μM, exposure time 8 hours
  S. oralis growth (OD): 0.075 OD
S. oralis [4]; 10 μM, exposure time 9 hours
  S. oralis growth (OD): 0.075 OD
S. oralis [4]; 10 μM, exposure time 10 hours
  S. oralis growth (OD): 0.074 OD
S. oralis [4]; 20 μM, exposure time 1 hour
  S. oralis growth (OD): 0.098 OD
S. oralis [4]; 20 μM, exposure time 2 hours
  S. oralis growth (OD): 0.099 OD
S. oralis [4]; 20 μM, exposure time 3 hours
  S. oralis growth (OD): 0.089 OD
S. oralis [4]; 20 μM, exposure time 4 hours
  S. oralis growth (OD): 0.088 OD
S. oralis [4]; 20 μM, exposure time 5 hours
  S. oralis growth (OD): 0.091 OD
S. oralis [4]; 20 μM, exposure time 6 hours
  S. oralis growth (OD): 0.090 OD
S. oralis [4]; 20 μM, exposure time 7 hours
  S. oralis growth (OD): 0.090 OD
S. oralis [4]; 20 μM, exposure time 8 hours
  S. oralis growth (OD): 0.081 OD
S. oralis [4]; 20 μM, exposure time 9 hours
  S. oralis growth (OD): 0.080 OD
S. oralis [4]; 20 μM, exposure time 10 hours
  S. oralis growth (OD): 0.079 OD
S. oralis [4]; S. oralis, low concentrations of rottlerin (Table 1)
  growth of bacteria compared to an untreated control: significantly reduced
A. viscosus; 10 μM, exposure time 1 hour
  A. viscosus growth (OD): 0.105 OD
A. viscosus; 10 μM, exposure time 2 hours
  A. viscosus growth (OD): 0.112 OD
A. viscosus; 10 μM, exposure time 3 hours
  A. viscosus growth (OD): 0.104 OD
A. viscosus; 10 μM, exposure time 4 hours
  A. viscosus growth (OD): 0.093 OD
A. viscosus; 10 μM, exposure time 5 hours
  A. viscosus growth (OD): 0.091 OD
A. viscosus; 10 μM, exposure time 6 hours
  A. viscosus growth (OD): 0.087 OD
A. viscosus; 10 μM, exposure time 7 hours
  A. viscosus growth (OD): 0.084 OD
A. viscosus; 10 μM, exposure time 8 hours
  A. viscosus growth (OD): 0.085 OD
A. viscosus; 10 μM, exposure time 9 hours
  A. viscosus growth (OD): 0.082 OD
A. viscosus; 10 μM, exposure time 10 hours
  A. viscosus growth (OD): 0.079 OD
A. viscosus; 20 μM, exposure time 1 hour
  A. viscosus growth (OD): 0.105 OD
A. viscosus; 20 μM, exposure time 2 hours
  A. viscosus growth (OD): 0.122 OD
A. viscosus; 20 μM, exposure time 3 hours
  A. viscosus growth (OD): 0.121 OD
A. viscosus; 20 μM, exposure time 4 hours
  A. viscosus growth (OD): 0.115 OD
A. viscosus; 20 μM, exposure time 5 hours
  A. viscosus growth (OD): 0.113 OD
A. viscosus; 20 μM, exposure time 6 hours
  A. viscosus growth (OD): 0.106 OD
A. viscosus; 20 μM, exposure time 7 hours
  A. viscosus growth (OD): 0.1 OD
A. viscosus; 20 μM, exposure time 8 hours
  A. viscosus growth (OD): 0.097 OD
A. viscosus; 20 μM, exposure time 9 hours
  A. viscosus growth (OD): 0.091 OD
A. viscosus; 20 μM, exposure time 10 hours
  A. viscosus growth (OD): 0.086 OD
A. viscosus; A. viscosus, low concentrations of rottlerin (Table 2)
  growth of bacteria compared to an untreated control: significantly reduced
